Test results taken from ChEMBL document CHEMBL1130461, “Polyclonal catalytic antibody for hetero-cycloaddition of hepta-1,3-diene with ethyl glyoxylate an approach to the synthesis of 2-nonulosonic acid analogs” (Bioorg Med Chem Lett, 1997).

Experiments:
[1] = Michaelis-Menten constant in polyclonal antibody reactions; assay type: ADME
[2] = Vmax in polyclonal antibody reactions; assay type: ADME

Km [1]: 96 µM
Vmax [2]: 0.98 µM/min
Structure (SMILES): C=C/C=C/CCOC(=O)CCC(=O)OCc1ccccc1
